Results on three compounds are retold here after article PMC10529594, “Strasseriolides display in vitro and in vivo activity against trypanosomal parasites and cause morphological and size defects in Trypanosoma cruzi” (PLOS Neglected Tropical Diseases, 2023).

For data set [1], the system named is transgenic Trypanosoma cruzi Brazil strain expressing firefly luciferase. Nature of the data set: In vivo efficacy, acute T. cruzi infection in BALB/c mice (luciferase imaging). The following applies: for Total counts, Average: vehicle average 8050000. On the procedure: In vivo experiments were performed at the Anti-infectives Screening Core Services facility of the New York University School of Medicine. The transgenic Trypanosoma cruzi Brazil strain expressing firefly luciferase was used. Groups of five female BALB/c mice were infected with 2 × 10^6 T. cruzi trypomastigotes. […] Quantification is based on luciferase activity of the parasites after i.p. injection of 150 mg/Kg D-luciferin potassium-salt in PBS. Luminescence is measured on the fifth day using an IVIS Lumina II imager.

Details of data set [2]: method as in PMID 34865639. The following applies: murine model, cited from earlier work.
The test system of the next data set is T. cruzi epimastigotes. Put plainly: Quantification of ATP intracellular levels (CellTiter-Glo). In kind it is cell-based, Trypanosoma cruzi. The following applies: for ATP content, individual replicates: single replicates. On the procedure:
ATP was determined using the CellTiter-Glo assay. Optimum readout conditions and linearity of the assay were established for T. cruzi epimastigotes by testing different cell densities. The assay was linear up to 100,000 cells (in 90 μl) per well. 50,000 cells (from log phase cultures) per well were dispensed into 96-well white flat bottom microplates containing 10 μl of strasseriolide C at concentrations ranging from 0.4 to 6.25 μM and grown at 28°C for 72 hours with orbital shaking. ATP standard curves were obtained using concentrations ranging from 0.1 to 100 pmol of ATP disodium salt in 90 μl of LIT medium per well. Both samples and standards were assayed in triplicate. 70 μL of CellTiter-Glo solution were added to treated and control parasites and to the standard curve wells, and luminescence detection was recorded after 15 minutes incubation in a Tecan Infinite 200 microplate reader.
To determine if ATP production was affected by these compounds, we measured intracellular levels in T. cruzi epimastigotes. After 72-hour treatment with strasseriolide C at doses ranging from 0.4 to 6.25 μM, 70 μl of Cell-Titer Glo reagent were added with a multichannel pipette. Plates were incubated at 28°C for 10 minutes, after which luminescence was recorded. Luminescence relative light unit (RLU) values were interpolated in the ATP calibration curve (S4A Fig) and pmol of ATP per well were quantified. Considering proliferation inhibition due to strasseriolide C activity, values were normalized with respect to the number of parasites as determined by counting in a Neubauer chamber using phase contrast microscopy.

Values joined by “and” are separate entries in the source; they are usually repeats but may differ in a detail not shown here. Identical values can stand only once. Like-named read-outs stand apart in the source and are kept apart here.

Consider `O=C(Cn1ccnc1[N+](=O)[O-])NCc1ccccc1` [Benznidazole, benznidazole], for which, in data set [1] (30 mg/kg i.p. 5 days, 30 mg/kg), the “Total counts, individual mouse” value is 4950000 and 268000 and 48200 and 38100. Further, in data set [1] (30 mg/kg i.p. 5 days), the “Total counts, Average” value worked out at 1330000.

For `C/C1=C\[C@H](C)CC[C@@H](O)/C(C)=C/[C@H](C)C[C@@H](C)CC[C@@H]([C@@H](C)C(=O)O)OC(=O)[C@@H](C)C1` [Strasseriolide B, strasseriolide B], the values for the toxicity in vivo entry in data set [2] (listed as B) and in data set [2] (listed as strasseriolide B) were “toxic in vivo” and “toxic”, respectively.

Regarding `C/C1=C\[C@H](C)C(=O)C[C@@H](O)/C(C)=C/[C@H](C)C[C@@H](C)CC[C@@H]([C@@H](C)C(=O)O)OC(=O)[C@@H](C)C1` [Strasseriolide C, strasseriolide C], the “ATP content, Average (pmol ATP/cell)” value in the data set with T. cruzi epimastigotes (0.390625 µM) is 1.759e-5 pmol ATP/cell; with T. cruzi epimastigotes (0.78125 µM), 1.732e-5 pmol ATP/cell; in the data set on T. cruzi epimastigotes (1.5625 µM), 1.679e-5 pmol ATP/cell; in the data set with T. cruzi epimastigotes (3.125 µM), 1.67e-5 pmol ATP/cell; in the data set on T. cruzi epimastigotes (6.25 µM), 1.53e-5 pmol ATP/cell. For the same compound, the “ATP content, individual replicates” value was 1.792e-5 pmol ATP/cell and 1.833e-5 pmol ATP/cell and 1.6509e-5 pmol ATP/cell with T. cruzi epimastigotes (0.390625 µM); 1.756e-5 pmol ATP/cell and 1.79e-5 pmol ATP/cell and 1.649e-5 pmol ATP/cell in the data set on T. cruzi epimastigotes (0.78125 µM); 1.677e-5 pmol ATP/cell and 1.743e-5 pmol ATP/cell and 1.6178e-5 pmol ATP/cell in the data set with T. cruzi epimastigotes (1.5625 µM); 1.693e-5 pmol ATP/cell and 1.736e-5 pmol ATP/cell and 1.58e-5 pmol ATP/cell in the data set with T. cruzi epimastigotes (3.125 µM); 1.501e-5 pmol ATP/cell and 1.61e-5 pmol ATP/cell and 1.48e-5 pmol ATP/cell in the data set on T. cruzi epimastigotes (6.25 µM). Moreover, the “cellular ATP pool” value in the data set on T. cruzi epimastigotes (epimastigotes, 72 h, 0.4 to 6.25 μM, normalized to parasite number) is “discrete reduction”. The “Total counts, individual mouse” value in data set [1] (50 mg/kg i.p. 5 days from 72 h post-infection, 50 mg/kg) was 1820000 and 5150000 and 2580000 and 6540000 and 3640000. Also, the “Total counts, Average” value in data set [1] (50 mg/kg i.p. 5 days from 72 h post-infection) stood at 3940000. Besides, the parasitaemia in vivo result in data set [1] (acute infection model, 50 mg/Kg i.p., 5 days) is given as “lowers parasitaemia”.
